Laboratory results from patent US20240190866A1, “POLYHYDROXYLATED INDOLIZIDINE AND PYRROLIZIDINE DERIVATIVES AND USES THEREOF” (Academia Sinica, priority 2021, published 2024).

Experiments:
[1] = target: human Golgi α-mannosidase II (α-hGMII) (Homo sapiens (Human), UniProt Q16706); experiment: Golgi α-mannosidase II (α-hGMII) activity assay, 4-MU-α-D-mannopyranoside substrate; type: biochemical; details: pH 7.0, 37° C., 2 h
Method: Compounds were diluted to give the final concentration of 100 μM and mixed with 4-MU-α-D-mannopyranoside as substrate and human Golgi α-mannosidase II in phosphate buffer (0.1 M Sodium phosphate dibasic, pH 7.0) or human lysosomal α-mannosidase in citric phosphate buffer (0.1 M Sodium phosphate monobasic monohydrate, 0.5 mM citric acid monohydrate, pH 4.6). The assay was carried out at 37° C. for a certain time (1 h for α-hLM, 2 h for α-hGMII). Stop solution (0.5 M K2CO3(aq), pH 10.8) was then added to the reactions and the fluorescence was determined at 355 nm excitation and 460 nm emission (SpectraMax M5, Molecular Devices). Inhibition was performed as relative enzyme activity to control. The active compounds were selected for libraries preparation and further tested at lower concentration to determine their IC50 values. The assays performed in 384-wells of the microtiter plates.

[2] = system: HepG2 cells; experiment: Anti-proliferative activity assay (MTT); type: cell-based, human; details: 72 h
Method: (§1) Human liver cancer HepG2 cells and Huh7 cells, breast cancer MDA-MB-231 cells, pancreatic cancer PANC-1 cells, and non-small cell lung (NSCL) cancer H1975 cells were maintained in Dulbecco's Modified Eagle Medium supplemented containing 10% fetal bovine serum (FBS), 100 units/ml penicillin and […] streptomycin in 37° C. incubator with 5% CO2.
(§2) Anti-proliferative activity of HepG2, Huh7 or PANC-1 cells was determined by 3-(4,5-dimethylthiazol-2-yl)-2,5-diphenyltetrazolium bromide (MTT) assay, while that of H1975 or MDA-MB-231 cells was determined by luminescent assay with the aid of commercial kit CellTiter-Glo® (Promega).
(§3) Cancer cells including HepG2, Huh7 and PANC-1 cells were respectively seeded at 10^4, 4×10^3, and 5×10^3 cells/well in 96-well plates and maintained for 14-16 hours. Cells were treated with dimethylsulfoxide (DMSO) or test compounds in varied concentrations for 72 h. Cells were then washed with PBS twice, added a medium containing 3-(4,5-dimethylthiazol-2-yl)-2,5-diphenyltetrazolium bromide (MTT) at a final concentration of 0.5 mg/mL, and incubated for 4 h at 37° C. in a humidified incubator containing 5% CO2 in air. Cells having functional succinate dehydrogenase of mithchondria would convert MTT to formazan. Then, the medium was replaced with 100 μL of DMSO for 30 min at room temperature, and the 96-well plate was read by an ELISA reader at 550 nm to get the absorbance density values. The IC50 values of death cell lines were calculated accordingly.

[3] = system: Huh7 cells; experiment: Anti-proliferative activity assay (MTT); type: cell-based, human; details: 72 h
Method: as §1, §2, §3

[4] = system: PANC-1 cells; experiment: Anti-proliferative activity assay (MTT); type: cell-based, human; details: 72 h
Method: as §1, §2, §3

[5] = system: H1975 cells; experiment: Anti-proliferative activity assay (CellTiter-Glo); type: cell-based, human; details: 48 h
Method: as §1, §2
(§4) For H1975 and MDA-MB-231, cells were respectively seeded at 5×10^3 cells/well in 96-well plates and maintained for 14-16 hours. Cells were treated with dimethylsulfoxide (DMSO) or test compounds in varied concentrations for 48 h. Cell viability was monitored using Cell-TiterGlo (Promega), a kit that measures the quantity of ATP present in the cell culture, an indicator of metabolically active cells. The IC50 values of death cell lines were calculated accordingly.

[6] = system: MDA-MB-231 cells; experiment: Anti-proliferative activity assay (CellTiter-Glo); type: cell-based, human; details: 48 h
Method: as §1, §2, §4

[7] = system: all cancer cell lines (HepG2, Huh7, PANC-1, H1975, MDA-MB-231); experiment: Anti-proliferative activity, pooled statement over all cancer cell lines; type: cell-based, human; details: read-out: half maximum inhibitory concentration (IC50), range in all cancer cell lines
Method: as §2, §3, §4

[8] = system: HepG2 cells; experiment: Transwell invasion assay; type: cell-based, human
Method: (§5) Chemotaxis experiments with human HepG2Huh7, or PANC-1 cells were assayed by using transwells (Millipore). The cells to be analyzed (5×10^4 cells/well) were seeded in the upper chambers of the 24-well plate in 400 μL serum-free medium. FBS (10%) was used as the chemoattractant with or without different concentrations of the test compound (e.g., ACK900, ACK901, ACK902) in the lower chamber, and the plate was incubated under standard conditions. After incubation for 18 hours, the media in the upper chambers were aspirated and washed with phosphate-buffered saline (PBS) twice. Both non-migrated and migrated cells were fixed with 4% paraformaldehyde (PFA) for 30 minutes at room temperature, stained with 2% crystal violet solution. The non-invading cells were removed from the upper surface of the insert membrane with a cotton swab. The images were taken using an imaging reader (Cytation 5, BioTek, VT, U.S.A.) and analyzed using NIH ImageJ software. Percent in the results represent percent of initial number of cells in the migrating and nonmigrating Cell fractions.

[9] = system: Huh7 cells; experiment: Transwell invasion assay; type: cell-based, human
Method: as §5

[10] = system: PANC-1 cells; experiment: Transwell invasion assay; type: cell-based, human; details: PANC-1, transwell
Method: as §5

human Golgi α-mannosidase II (α-hGMII), sequence (Q16706 whole entry): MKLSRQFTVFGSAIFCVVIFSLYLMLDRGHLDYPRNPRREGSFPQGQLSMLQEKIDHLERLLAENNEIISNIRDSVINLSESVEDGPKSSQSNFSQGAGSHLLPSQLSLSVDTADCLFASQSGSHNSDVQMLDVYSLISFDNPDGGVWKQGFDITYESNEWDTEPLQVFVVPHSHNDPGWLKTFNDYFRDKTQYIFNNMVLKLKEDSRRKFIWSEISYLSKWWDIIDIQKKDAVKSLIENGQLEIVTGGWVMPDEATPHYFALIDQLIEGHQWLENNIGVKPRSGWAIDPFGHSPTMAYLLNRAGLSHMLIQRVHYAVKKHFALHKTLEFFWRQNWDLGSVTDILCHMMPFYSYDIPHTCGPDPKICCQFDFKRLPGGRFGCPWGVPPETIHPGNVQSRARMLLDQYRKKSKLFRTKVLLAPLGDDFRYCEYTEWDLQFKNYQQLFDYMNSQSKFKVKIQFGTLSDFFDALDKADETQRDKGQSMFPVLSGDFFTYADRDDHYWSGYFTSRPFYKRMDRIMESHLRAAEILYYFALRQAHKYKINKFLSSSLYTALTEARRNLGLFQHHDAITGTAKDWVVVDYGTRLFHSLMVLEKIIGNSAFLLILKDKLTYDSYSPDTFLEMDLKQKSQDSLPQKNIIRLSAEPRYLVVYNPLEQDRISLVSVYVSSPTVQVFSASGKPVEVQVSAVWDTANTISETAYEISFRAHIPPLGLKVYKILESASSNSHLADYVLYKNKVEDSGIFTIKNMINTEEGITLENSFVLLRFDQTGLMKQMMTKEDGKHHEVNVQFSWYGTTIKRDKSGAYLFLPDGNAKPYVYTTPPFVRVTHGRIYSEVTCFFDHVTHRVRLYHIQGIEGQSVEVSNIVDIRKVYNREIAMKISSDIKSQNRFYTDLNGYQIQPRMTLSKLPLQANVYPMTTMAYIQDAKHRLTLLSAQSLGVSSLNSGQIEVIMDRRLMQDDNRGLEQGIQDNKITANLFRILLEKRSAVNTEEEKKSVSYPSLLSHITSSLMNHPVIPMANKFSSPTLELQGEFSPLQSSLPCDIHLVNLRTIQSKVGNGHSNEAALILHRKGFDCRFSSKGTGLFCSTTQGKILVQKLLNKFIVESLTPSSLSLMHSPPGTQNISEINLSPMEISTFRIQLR

IC50 [1]: 0.1 µM
IC50 [2]: 5.9 µM
IC50 [3]: 7.8 µM
IC50 [4]: 14.5 µM
IC50 [5]: 13.9 µM
IC50 [6]: 4.6 µM
IC50 [7]: 0.3 to 19.1 µM
SMILES: CCC[C@H]1CC[C@H](c2ccc(NC(=S)NC[C@@H]3[C@@H](O)[C@@H](O)[C@H]4[C@H](O)CCCN43)cc2)CC1 [ACK900]
invasive capability [8]: remarkably decreased
invasive capability [9]: remarkably decreased
invasive capability [10]: remarkably decreased
